Experimental data reported in patent US7186695B2 (priority 2001, dated 2007).
pIC50: −log10 of the molar value. Entries after “also recorded” stand apart in the source; their conditions may differ.

Columns and labels:
Human recombinant PDI = target: T1, Human recombinant PDI (Homo sapiens, UniProt P07237); assay: Incorporation of GSAO-B into purified protein, streptavidin-peroxidase blot; assay type: binding
T1 construct: made in house; host or cells: E. coli
Protocol: (§1) FIG. 14. Interaction of GSAO-B with PDI and thioredoxin. A Structure of GSAO-B. B Purified human recombinant PDI (5 μM), human recombinant thioredoxin (5 μM) or bovine serum albumin (5 μM) was incubated with dithiothreitol (10 μM) for 60 minutes at room temperature to ensure that the active site disulfide(s) of PDI and thioredoxin were in the reduced dithiol form. GSAO-B (100 μM) or GSAO-B and DMP (400 μM) was then added and the reactions incubated for 30 minutes at room temperature. The labelled PDI (lanes 1 and 2), thioredoxin (lanes 3 and 4) and albumin (lane 5) (75 pmoles) was resolved on […] SDS-PAGE, transferred to PVDF membrane, and blotted with streptavidin-peroxidase to detect the GSAO-B label. The positions of Mr markers are shown at left.
(§2) Human recombinant PDI and thioredoxin bound GSAO-B (FIG. 14). Recombinant human protein disulfide isomerase (PDI) was produced in E. coli and purified according to Jiang et al. (1999). In the experiment, purified PDI, thioredoxin or albumin as negative control were incubated with a 2-fold molar excess of dithiothreitol for 60 minutes to ensure that the active site disulfides of PDI and thioredoxin were in the reduced dithiol state. The proteins were then incubated with GSAOB or GSAO-B and a 4-fold molar excess of DMP for 30 minutes. Equivalent moles of the labelled proteins were resolved on SDS-PAGE, transferred to PVDF membrane, and blotted with streptavidin-peroxidase to detect the GSAO-B label. Samples were resolved on 4–15% SDS-PAGE under non-reducing conditions (Laemmli, 1970) and transferred to PVDF membrane. Proteins were detected by Western blot using an anti-PDI murine monoclonal antibody (Jiang et al., 1999) (used at 2 μg per mL). Rabbit anti-mouse horseradish peroxidase conjugated antibodies (Dako Corporation, Carpinteria, Calif.) were used at 1:2000 dilution. GSAO-B-labelled proteins were blotted with streptavidin peroxidase (Amersham, Sydney, NSW) used at 1:1000 dilution. […] Chemiluminescence films were analysed using a GS-700 Imaging Densitometer and Multi-Analyst software (Bio-Rad, Hercules, Calif.).

Thioredoxin = target: T2, Thioredoxin (Homo sapiens, UniProt P10599); assay: as above; assay type: binding; conditions: GSAO-B 100 μM, protein 5 μM, 30 minutes
T2 construct: purchased American Diagnostica, Greenwich, Conn; host or cells: E. coli
T2 sequence (P10599 1-105): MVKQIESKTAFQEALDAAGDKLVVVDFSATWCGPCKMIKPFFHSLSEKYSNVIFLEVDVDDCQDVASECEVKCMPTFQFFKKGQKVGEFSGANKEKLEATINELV
Protocol: as §1, §2

bovine serum albumin = bovine serum albumin (Bos taurus, UniProt P02769); assay: Incorporation of GSAO-B into purified protein, streptavidin-peroxidase blot (negative control protein); assay type: binding; conditions: GSAO-B 100 μM, protein 5 μM, 30 minutes
Protocol: as §1
Human recombinant PDI and thioredoxin bound GSAO-B (FIG. 14). Recombinant human protein disulfide isomerase (PDI) was produced in E. coli and purified according to Jiang et al. (1999). […] Proteins were detected by Western blot using an anti-PDI murine monoclonal antibody (Jiang et al., 1999) (used at 2 μg per mL). […] Chemiluminescence films were analysed using a GS-700 Imaging Densitometer and Multi-Analyst software (Bio-Rad, Hercules, Calif.).

HMEC-1 or HUVE cells = assay: Labelling of endothelial cell surface proteins with GSAO-B; assay type: cell-based, human; conditions: GSAO-B 100 μM, 30 minutes
Protocol: FIG. 16. Identification of endothelial cell surface proteins that contain closely spaced dithiol(s). A The surface of HMEC-1 or HUVE cells (2×10^6 cells in 0.4 mL) was labelled with GSAO-B (100 μM) for 30 minutes at room temperature in the absence (lanes 1 and 3) or presence of DMP (400 μM) (lane 2). The endothelial cells were lysed and the lysate from both incubations was resolved on 4–15% SDS-PAGE, transferred to PVDF membrane, and blotted with streptavidin peroxidase to detect the GSAO-B label. The results represent labelling of 3×10^4 HMEC-1 (lanes 1 and 2) of HUVE cells (lane 3). The positions of Mr markers are shown at left. B Densitometry profile of the surface labelled proteins (lanes 1 and 3). The apparent Mr's of the individual proteins are indicated.
Human umbilical vein endothelial cells (HUVEC) (Wall et al., 1978) and the human dermal microvascular endothelial cell line, HMEC-1 (Ades et al., 1992), were harvested and cultured as indicated. […] Bound proteins were washed 5 times with 50 mM Tris/HCl, pH 8 buffer containing 0.15 M NaCl and 0.05% Triton X-100, resolved on SDS-PAGE, transferred to PVDF membrane, and the GSAO-B-labelled proteins detected by Western blot.

[1] = test system: PDI on the endothelial cell surface; assay: GSAO-B labelling of cell surface PDI, streptavidin-agarose pull-down and anti-PDI blot; assay type: cell-based, bovine; conditions: GSAO-B 100 μM, absence of DMP
Protocol: FIG. 17. PDI was one of the GSAO-B labelled proteins on the endothelial cell surface. HUVEC (5×10^6 cells in 0.75 mL) were labelled with GSAO-B (100 μM) for 30 minutes at 37° C. in the absence (lanes 1) or presence of DMP (400 μM) (lane 2). The cells were lysed and incubated with streptavidin-agarose beads to collect the biotin-labelled proteins. The labelled proteins were resolved on 4–15% SDS-PAGE, transferred to PVDF membrane, and blotted with anti-PDI monoclonal antibodies. The results represent labelling of 5×10^6 endothelial cells. The positions of Mr markers are shown at left.
BAE cells were labelled with GSAO-B in the absence or presence of DMP, lysed and incubated with streptavidin-agarose beads to collect the biotin-labelled proteins. The labelled proteins were eluted from the beads, resolved on SDS-PAGE, transferred to PVDF membrane, and blotted with anti-PDI polyclonal antibodies.

BAE cells = assay: cells; conditions: Bos taurus, Endothelial cell, 24 h, read-out: IC50 for viability

T1 sequence (P07237 18-508): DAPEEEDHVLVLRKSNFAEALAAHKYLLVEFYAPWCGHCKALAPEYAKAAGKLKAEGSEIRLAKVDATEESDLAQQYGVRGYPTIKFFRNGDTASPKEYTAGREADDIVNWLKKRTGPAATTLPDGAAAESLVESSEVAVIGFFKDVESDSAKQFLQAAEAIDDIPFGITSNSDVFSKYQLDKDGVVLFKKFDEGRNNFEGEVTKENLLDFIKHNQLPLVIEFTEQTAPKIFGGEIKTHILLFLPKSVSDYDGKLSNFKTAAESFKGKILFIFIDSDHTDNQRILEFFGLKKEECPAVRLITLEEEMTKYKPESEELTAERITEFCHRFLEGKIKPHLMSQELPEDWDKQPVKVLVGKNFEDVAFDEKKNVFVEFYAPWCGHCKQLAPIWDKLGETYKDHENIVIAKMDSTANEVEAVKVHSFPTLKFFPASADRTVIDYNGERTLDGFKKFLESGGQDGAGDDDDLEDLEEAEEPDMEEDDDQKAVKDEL
Chain of bovine serum albumin (P02769 25-607): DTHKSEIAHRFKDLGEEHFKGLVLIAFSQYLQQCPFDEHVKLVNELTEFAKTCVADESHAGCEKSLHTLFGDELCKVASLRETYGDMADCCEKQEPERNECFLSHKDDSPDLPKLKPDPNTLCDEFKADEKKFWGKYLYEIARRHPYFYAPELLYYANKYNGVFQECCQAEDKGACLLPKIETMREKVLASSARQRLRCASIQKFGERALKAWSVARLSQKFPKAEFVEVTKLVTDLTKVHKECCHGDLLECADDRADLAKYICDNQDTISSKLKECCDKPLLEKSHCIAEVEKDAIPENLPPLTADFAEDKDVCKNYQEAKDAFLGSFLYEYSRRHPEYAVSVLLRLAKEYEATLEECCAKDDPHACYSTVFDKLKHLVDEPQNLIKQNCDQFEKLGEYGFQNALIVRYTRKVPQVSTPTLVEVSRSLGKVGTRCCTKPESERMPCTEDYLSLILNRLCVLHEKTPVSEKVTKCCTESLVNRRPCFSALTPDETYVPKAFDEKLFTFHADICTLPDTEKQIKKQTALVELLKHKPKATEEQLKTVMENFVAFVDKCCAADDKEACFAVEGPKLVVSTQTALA

## 4-(N-(S-(N-(6-(N-(6-(N-(biotinoyl)-amino)hexanoyl)amino)hexanoyl)glutathiony)acetyl)amino)phenylarsenoxide [GSAO-B]
Human recombinant PDI; GSAO-B 100 μM, protein 5 μM, 30 minutes
  incorporation of GSAO-B: bound GSAO-B; also recorded: incorporated GSAO-B
Human recombinant PDI; equivalent moles of labelled proteins
  density of labelling of PDI relative to thioredoxin: approximately twice
Thioredoxin
  incorporation of GSAO-B: bound GSAO-B; also recorded: incorporated GSAO-B
Bovine serum albumin
  incorporation of GSAO-B: albumin did not
HMEC-1 or HUVE cells
  proteins on the endothelial cell surface that incorporated GSAO-B: approximately ten proteins
[1]
  labelling of cell surface PDI by GSAO-B: PDI was one of the proteins on the endothelial cell surface that incorporated GSAO-B

## O=[As]c1ccc(NC(=O)CSCCC(=O)N[C@@H](CC(=O)O)C(=O)O)cc1 (stereo partly drawn) [AspAO, N-(3-(4-arsenoso-phenylcarbamoylmethylthio)propanoyl)-L-aspartic acid]
BAE cells
  pIC50: > 6.00

## O=[As]c1ccc(NC(=O)CSCCC(=O)N[C@@H](CS(=O)(=O)O)C(=O)O)cc1 (stereo partly drawn) [Cys*AO, N-(3-(4-arsenosophenylcarbamoylmethylthio)propanoyl)-L-cysteic acid]
BAE cells
  pIC50: > 5.00

## O=[As]c1ccc(NC(=O)CSCCC(=O)N[C@H]2C(O)O[C@H](CO)[C@@H](O)[C@@H]2O)cc1 (stereo partly drawn) [GlcAO, N-(3-(4-arsenosophenylcarbamoylmethylthio)propanoyl)-D-glucosamine]
BAE cells
  pIC50: > 6.00

## O=[As]c1ccc(NC(=O)CSCCC(=O)N[C@@H](CCC(=O)O)C(=O)O)cc1 (stereo partly drawn) [GluAO, N-(3-(4-arsenosophenylcarbamoylmethylthio)propanoyl)-L-glutamic acid]
BAE cells
  pIC50: > 5.00
